# Several values for one entry are separate records, joined by “and”; a condition that tells them apart may be missing. Identical values can stand only once.
# Target: 5-hydroxytryptamine receptor 4 (Homo sapiens, UniProt Q13639)
# Sequence (Q13639 whole entry): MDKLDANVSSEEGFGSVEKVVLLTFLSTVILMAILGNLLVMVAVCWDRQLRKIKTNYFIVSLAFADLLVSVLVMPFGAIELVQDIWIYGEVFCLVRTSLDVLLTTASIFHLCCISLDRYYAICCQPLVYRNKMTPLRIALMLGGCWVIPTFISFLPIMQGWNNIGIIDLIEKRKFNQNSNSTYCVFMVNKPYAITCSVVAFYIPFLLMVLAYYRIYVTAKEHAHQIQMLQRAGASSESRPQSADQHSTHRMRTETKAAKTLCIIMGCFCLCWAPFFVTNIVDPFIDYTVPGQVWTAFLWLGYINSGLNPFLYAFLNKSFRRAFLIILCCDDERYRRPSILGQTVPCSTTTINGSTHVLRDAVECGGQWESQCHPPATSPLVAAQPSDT
row,SMILES,Ki
1,CCn1c(=O)n(C(=O)NC2CC3CCC(C2)N3C)c2ccccc21 (stereo not drawn) [BIMU 1],373 nM and 123 nM and 66 nM and 38.8 nM
2,Cn1cc(C(=O)OCC2CCN(CCNS(C)(=O)=O)CC2)c2ccccc21 [GR 113808],0.07 nM
3,"COc1cc(N)c(Cl)cc1C(=O)NC1CN2CCC1CC2 (stereo not drawn) [ZACOPRIDE,R]",> 10000 nM
